Laboratory results published in patent publication US9468670B2, “Melatonin-based treatment and diagnosis of bile duct disease” (Texas A&M University System, priority 2011, dated 2016).

Assays:
large cholangiocytes = experiment: Bile duct mass, PCNA-positive cholangiocytes and apoptosis (TUNEL) in liver sections; assay type: in vivo, rat
Method: Male 344 Fischer rats (150-175 g) were purchased from Charles River (Wilmington, Mass.) and kept in a temperature-controlled environment (22° C.) with 12:12 hr light/dark cycles. Animals were fed ad libitum and had free access to food and drinking water. […] Before each surgical procedure, animals were anesthetized with sodium pentobarbital (50 mg/kg BW, IP). All animal experiments were performed in accordance with a protocol approved by the Scott and White and Texas A&M Health Science Center Institutional Animal Care and Use Committee and conform to the Guide for the Care and Use of Laboratory Animals published by the US National Institutes of Health (NIH Publication No. 85-23, revised 1996). In all animals, wet liver weight, body weight, wet liver weight to body weight ratio, and an index of liver cell growth including cholangiocytes were measured ([…] et al., 1988). The following was also evaluated in paraffin-embedded liver sections ([…]): (i) lobular necrosis; (ii) the intrahepatic bile duct mass (IBDM) of large (>[…]) ([…] et al., 1997; Glaser et al., 2009) cholangiocytes, the only biliary cell types proliferating following […] et al., 1998; Glaser et al., 2009) and (iii) the percentage of cholangiocyte apoptosis by semiquantitative terminal deoxynucleotidyltransferase biotin-dUTP nick-end labeling (TUNEL) kit (Apoptag; Chemicon International, Inc.) (Glaser et al., 2010). Lobular necrosis was measured in liver sections stained for hematoxylin and eosin (Glaser et al., 2010). […] The IBDM was measured as area occupied by CK-19 positive-bile duct/total area×100 (Glaser et al., 2010). It was also evaluated by H&E of sections if melatonin administration induces the damage of kidney, heart, stomach, spleen and small and large intestine of normal and BDL rats. The sections from the selected were evaluated in a blinded-fashion by two board-certified pathologists by a BX-51 light microscope (Olympus, Tokyo, Japan) equipped with a camera.

[1] = test system: SR, CFTR, Cl−/HCO3− AE2, VEGF-A/C; experiment: Expression of PCNA, SR, CFTR, Cl−/HCO3− AE2, VEGF-A/C in liver sections, liver tissue and cholangiocytes of Morpholino-treated rats; assay type: in vivo, rat; conditions: normal rats, 1 week
Method: In separate experiments, normal rats treated with Vivo-Morpholino sequences of AANAT (5′-[…] (SEQ ID NO:1), to reduce the biliary expression of AANAT) or Morpholino mismatched (5′-[…] (SEQ ID NO:2)) (Gene Tools LCC) (1 mg/Kg BW/day) for 1 week via an implanted portal vein catheter. Serum, liver tissue, cholangiocytes, kidney, spleen, small intestine, stomach and heart were collected. Since our goal was to knock-down AANAT expression in the liver without inhibiting AANAT expression in other organs, we used a lower dose (1 mg/Kg/day) of Vivo-Morpholino than that described in the original study (3.0 mg/kg/day (Arora et al., 2002). This approach minimizes the amount of Vivo-Morpholino that circulates outside of the liver after slow infusion into the portal vein. See below for the surgical procedure for the implantation of the portal vein catheter by which AANAT Vivo-Morpholino or Morpholino mismatched was administered.
By real-time PCR (Francis et al., 2008), the expression of PCNA, SR, CFTR, Cl^−/HCO3^− AE2, VEGF-A/C was evaluated in total RNA from: (i) cholangiocytes from normal rats, and BDL rats treated with melatonin; and (ii) liver tissue and cholangiocytes from rats treated with mismatch or AANAT Vivo-Morpholino for 1 week. A ΔΔCT analysis was obtained using normal cholangiocytes or normal total liver as control samples (Francis et al., 2008). The primers for rat PCNA, SR, CFTR, Cl^−/HCO3^− AE2, VEGF-A/C (SABiosciences) were designed according to the NCBI GenBank Accession numbers: NM_022381 (PCNA); NM_031115 (SR); NM_017048 (Cl^−/HCO3^− AE2); XM_001059206 (CFTR); NM_031836 (VEGF-A); and NM_053653 (VEGF-C). The percentage of cholangiocytes positive for SR, CFTR, Cl^−/HCO3^− AE2 and VEGF-A/C was evaluated in liver sections: when 0%-5% of bile ducts were positive a negative score was assigned; a +/−score was assigned when 6%-10% of ducts were positive; a +score was assigned when 11%-30% of bile ducts were positive (Glaser et al., 2009).

[2] = BDL rats vs. corresponding control rats

Compound	Cholangiocyte apoptosis (large cholangiocytes; BDL rats)	Large BDM (bile duct mass) (large cholangiocytes; [2])	Percentage of PCNA-positive large cholangiocytes (large cholangiocytes; [2])	Effects on bile duct mass, PCNA-positive cholangiocytes and apoptosis (large cholangiocytes; normal rats)	Immunoreactivity of cholangiocytes to CFTR [1]	Immunoreactivity of cholangiocytes to Cl−HCO3− AE2 [1]	Immunoreactivity of cholangiocytes to SR [1]	Immunoreactivity of cholangiocytes to VEGF-A [1]	Immunoreactivity of cholangiocytes to VEGF-C [1]
COc1ccc2[nH]cc(CCNC(C)=O)c2c1 [melatonin]	enhanced	decreased	decreased	no effects	–	–	–	–	–
AANAT Vivo-Morpholino: Vivo-Morpholino sequence of AANAT 5′-GTTCCCCAGCTTTGGAAGTGGTCCC (SEQ ID NO:1), to reduce the biliary expression of AANAT (all phosphorodiamidate morpholino (PMO); Vivo-Morpholino delivery moiety attached, position not given here, further chemistry not fully specified)	–	–	–	–	+ (a +score was assigned when 11%-30% of bile ducts were positive)	+ (a +score was assigned when 11%-30% of bile ducts were positive)	+ (a +score was assigned when 11%-30% of bile ducts were positive)	+ (a +score was assigned when 11%-30% of bile ducts were positive)	+ (a +score was assigned when 11%-30% of bile ducts were positive)
